Test results taken from ChEMBL document CHEMBL3046183, “2,4,6-Trihydroxybenzaldehyde as a potent antidiabetic agent alleviates postprandial hyperglycemia in normal and diabetic rats” (Med Chem Res, 2011).
Activity calls are given as the source filed them. No cut-off for these calls is given here.

Tests used:
[1] = Inhibition of alpha-glucosidase (unknown origin) using PNPG as substrate assessed as p-nitrophenol release from substrate after 30 min; design: species or system Homo sapiens
[2] = system: Rattus norvegicus; assay: Antihyperglycemic activity in glucose treated Rattus norvegicus Sprague-Dawley (rat) assessed as reduction of postprandial blood glucose level at 50 mg/kg administered intragastrically immediately after glucose load after 30 min (reference value: 95.7 to 182.3 mg/dl); format: functional; settings: route intragastric
[3] = system: Rattus norvegicus; assay: Antidiabetic activity in maltose loaded Rattus norvegicus Sprague-Dawley (rat) streptozotocin-induced diabetic model assessed as reduction of blood glucose level at 50 mg/kg administered intragastrically immediately after maltose load after 2 hr; format: functional, organism-based; design: dose 50 mg/kg
[4] = system: Rattus norvegicus; assay: Antidiabetic activity in Rattus norvegicus Sprague-Dawley (rat) streptozotocin-induced diabetic model assessed as reduction of blood glucose level at 50 mg/kg administered intragastrically after 30 min (reference value: 378.2 to 594.7 mg/dl); format: functional; settings: route intragastric
[5] = system: Rattus norvegicus; assay: Antihyperglycemic activity in maltose treated Rattus norvegicus Sprague-Dawley (rat) assessed as reduction of postprandial blood glucose level at 50 mg/kg administered intragastrically immediately after maltose load after 2 hr; format: functional, organism-based; design: dose 50 mg/kg
[6] = system: Rattus norvegicus; assay: Antidiabetic activity in maltose loaded Rattus norvegicus Sprague-Dawley (rat) streptozotocin-induced diabetic model assessed as reduction of blood glucose level at 20 mg/kg administered intragastrically immediately after maltose load after 2 hr; format: functional, organism-based; design: dose 20 mg/kg
[7] = system: Radical scavenging activity; assay: Antioxidant activity assessed as DPPH radical scavenging activity after 30 min; format: functional
[8] = system: Rattus norvegicus; assay: Antidiabetic activity in Rattus norvegicus Sprague-Dawley (rat) streptozotocin-induced diabetic model assessed as reduction of blood glucose level at 20 mg/kg administered intragastrically after 30 min (reference value: 378.2 to 594.7 mg/dl); format: functional; settings: route intragastric
[9] = system: Rattus norvegicus; assay: Antihyperglycemic activity in maltose treated Rattus norvegicus Sprague-Dawley (rat) assessed as reduction of postprandial blood glucose level at 20 mg/kg administered intragastrically immediately after maltose load after 2 hr; format: functional, organism-based; design: dose 20 mg/kg
[10] = system: Rattus norvegicus; assay: Antihyperglycemic activity in glucose treated Rattus norvegicus Sprague-Dawley (rat) assessed as reduction of postprandial blood glucose level at 20 mg/kg administered intragastrically immediately after glucose load after 30 min (reference value: 95.7 to 182.3 mg/dl); format: functional; settings: route intragastric
[11] = organism: Homo sapiens; assay: Noncompetitive inhibition of alpha-glucosidase (unknown origin) using PNPG as substrate by Lineweaver-Burk plot analysis

COc1cc(OC)c(C=O)c(OC)c1 [2,4,6-TRIMETHOXYBENZALDEHYDE] showed an IC50 [1] of 2380 µM.

For C[C@H]1O[C@H](O[C@H]2[C@H](O)[C@@H](O)[C@@H](O[C@H]3[C@H](O)[C@@H](O)C(O)O[C@@H]3CO)O[C@@H]2CO)[C@H](O)[C@@H](O)[C@@H]1N[C@H]1C=C(CO)[C@@H](O)[C@H](O)[C@H]1O (some centres undefined) [ACARBOSE], the Activity [2] was 97.5 mg/dL, the Activity [3] was “Active” and the Activity [4] was 372.1 mg/dL. The Activity [5] was “Active”.

For O=C(O)c1cc(O)c(O)c(O)c1 [GALLIC ACID], the IC50 [1] was 112 µM.

O=C(OC[C@H]1O[C@@H](OC(=O)c2cc(O)c(O)c(O)c2)[C@H](OC(=O)c2cc(O)c(O)c(O)c2)[C@@H](OC(=O)c2cc(O)c(O)c(O)c2)[C@@H]1OC(=O)c1cc(O)c(O)c(O)c1)c1cc(O)c(O)c(O)c1 [PENTAGALLOYL GLUCOSE] gave an IC50 [1] of 0.39 µM.

For O=Cc1c(O)cc(O)cc1O [PHLOROGLUCINALDEHYDE], the IC50 [1] was 4.6 µM, the Activity [6] was “inactive” and the IC50 [7] was 71.4 µM. The Activity [8] was 367.9 mg/dL, the Activity [9] was “inactive” and the Activity [10] was 96.5 mg/dL. The inhibition [11] was “Active”.
